Assays:
[1] = test system: J774.1a macrophage cells; assay: Macrophage TNF-α production (Assay 2); format: cell-based; conditions: 10 μg/mL test compound, 100 ng/mL LPS, supernatants after 2 hr and 5 hr; note: key: a ‘+’ indicates a positive result for desired activity; a ‘−’ indicates a negative result for desired activity
Summary of the method: (§1)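 J774.1a macrophages pretreated 40 min with 10 μg/mL compound, then LPS (100 ng/mL for TNF-α); TNF-α by ELISA in supernatants at 2 and 5 h, NO by Griess at 24 h. Mast cells IgE-loaded (anti-DNP), compound 30 min, DNP-HSA challenge; calcium flux by fura-2 spectrofluorometry, signalling by immunoblot.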

[2] = test system: J774.1a macrophage cells; assay: Macrophage TNF-α NO assay (Assay 3), Griess reagent; format: cell-based; conditions: 10 μg/ml test compound, LPS, supernatants after 24 hr; note: key: a ‘+’ indicates a positive result for desired activity; a ‘−’ indicates a negative result for desired activity
Summary of the method: as §1

[3] = test system: MM cell lines; assay: In vitro Multiple Myeloma (MM) assay (Assay 7); format: cell-based; conditions: for Assay 7: In vitro Multiple Myeloma (MM) assay, desired activity: viable cell number by trypan blue, [3H]-thymidine; for Assay 7: In vitro Multiple Myeloma (MM) assay, desired activity: key: a ‘+’ indicates a positive result for desired activity; a ‘−’ indicates a negative result for desired activity
Description: (§2) Assay 1) In vitro testing in a SHIP enzyme assay. Test compounds were dissolved in a suitable solvent (e.g. EtOH, DMSO and others) and diluted into aqueous buffer (20 mM Tris HCl, pH 7.5 and 10 mM MgCl2). SHIP enzyme assays were performed in 96-well microtitre plates with 10 ng of enzyme/well in a total volume of 25 μL of 20 mM Tris HCl, pH 7.5 and 10 mM MgCl2. SHIP enzyme was incubated with test extracts (provided in solvent) or vehicle for 15 min at 23° C. before the addition of 100 μM inositol-1,3,4,5-tetrakisphosphate (Echelon Biosciences Inc, Salt Lake City, Utah). After 20 min at 37° C. and the amount of inorganic phosphate released assessed by the addition of Malachite Green reagent and absorbance measurement at 650 nm. Assay 2) Macrophage TNF-α production. J774.1a macrophage cells were treated with 10 μg/mL of test compound dissolved in solvent (e.g. cyclodextran) for 40 minutes prior to the addition of 100 ng/mL LPS. Culture supernatants were collected after 2 hr and 5 hr for TNF-α determination by ELISA. Assay 3) Macrophage TNF-α NO assay. J774.1a macrophage cells were treated with 10 μg/ml of test compound dissolved in solvent for 40 minutes prior to the addition of LPS. Culture supernatants were collected after 24 hr. for determination of NO concentration using the Griess reagent. Assay 4) Stimulation of mast cells by FcεRI crosslinking. Mast cells were pre-loaded overnight in BMMC medium lacking IL-3 with 0.1 μg/ml anti-DNP IgE (SPE-7, Sigma, Oakville, Ont). For calcium flux measurements, cells were incubated with 2 μM fura 2-acetoxymethyl ester (Molecular Probes, Eugene, Oreg.) in Tyrode's buffer at 23° C. for 45 min. Cells were then washed and incubated in the presence of the test compound 30 min prior to stimulation with the indicated concentration of DNP-human serum albumin (DNP-HSA). Calcium influx was monitored by spectrofluorometry as described previously. For analysis of intracellular signaling, cells were pre-loaded with anti-DNP IgE as above, pre-treated with the test compound for 30 min at 37° C. and stimulated with 20 ng/ml DNP-HSA for 5 min. Total cell lysates were then prepared and analyzed for phospho-PKB, phospho-p38^MAPK, phospho-MAPK, Grb-2 (Cell Signalling, Mississauga, Ont) and SHIP^6 by immunoblot analysis. Assay 5) Mouse acute cutaneous anaphylaxis model. 6-8 week old CD1 mice (University of British Columbia Animal Facility, Vancouver, BC) were sensitized to the hapten DNP by cutaneous application of 25 μL of 0.5% dinitrofluorobenzene (DNFB) (Sigma, Oakville, Ont) in acetone to the shaved abdomen of mice for two consecutive days. 24 hrs later, test substances (dissolved in 10 μL of 1:2 DMSO:MeOH) were painted on the right ear while the left ear received vehicle control. 30 min after drug application, DNFB was applied to both ears to induce mast cell degranulation. A 6 mm punch was taken from the ear and immediately frozen on dry ice for subsequent determination of neutrophil myeloperoxidase (MPO) activity. Assay 6) Mouse endotoxemia model. 6-8 week old C57B16 mice (VCHRI Mammalian Model of Human Disease Core Facility, Vancouver, BC) were orally administered the test compound 30 min prior to an IP injection of 2 mg/kg of LPS (E. Coli serotype 0111:B4, Sigma, Oakville, Ont). Blood was drawn 2 hrs later for determination of plasma TNFα by ELISA. Assay 7) In vitro Mulitple Myeloma (MM) assay. The ability of SHIP activators to reduce tumor cell survival was assessed in MM cell lines treated with the test compound. The lines OPM1, OPM2, MM.1S and RPMI 8226 were plated at a density of 1×10^5 cells/mL in 200 μL of medium with various concentrations of the test compound, and viable cell numbers were determined on day 3 and day 5 by trypan blue exclusion. The lines RPMI 8226 and U266 were plated at a density of 1×10^6 cells/mL in 250 μL of medium with various concentrations of the test compound. At day 4, the medium of each culture was replaced by fresh medium containing the same concentration of test compound. […]

[4] = test system: SHIP enzyme; assay: In vitro SHIP enzyme assay (Assay 1), phosphate release by Malachite Green; format: biochemical; for Assay 1: SHIP enzyme assay, desired activity: key: a ‘+’ indicates a positive result for desired activity; a ‘−’ indicates a negative result for desired activity
Description: as §2

Row | SMILES | Assay 2: Macrophage TNF-α production, desired activity [1] | Assay 3: Macrophage NO assay, desired activity [2] | Assay 7: In vitro Multiple Myeloma (MM) assay, desired activity [3] | SHIP enzyme activity in vitro [4] | Assay 1: SHIP enzyme assay, desired activity ([4]; 10 ng enzyme/well, 100 μM inositol-1,3,4,5-tetrakisphosphate) | MM proliferation / tumor cell survival, comparison ([3]; OPM1, OPM2, MM.1S, RPMI 8226, U266, trypan blue)
1 | Cc1cc(O)c(O)c2c1[C@]1(C)CCC3C(C)(C)CCC[C@]3(C)[C@H]1C2 (stereo partly drawn) [AQX-016A] | + | + | + | – | – | –
2 | Cc1cc(O)cc2c1[C@]1(C)CCC3C(C)(C)CCC[C@]3(C)[C@H]1C2 (stereo partly drawn) [Compound 100] | + | + | + | enhanced SHIP enzyme activity in vitro | + | inhibits MM proliferation at lower concentrations than AQX-016A

— patent US20100323990A1, “SHIP 1 MODULATOR PRODRUGS” (THE UNIVERSITY OF BRITISH COLUMBIA, priority 2006, published 2010)
